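These data come from cells grown in 96-well plates and exposed to compound for 48 hours at five concentrations. The concentration for full growth arrest is given as TGI.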
Tests used:
Test in all cases: inhibition of tumour cell growth, NCI panel, 48 h
SF-539 CNS = tested on: SF-539 CNS
MALME-3M melanoma = tested on: MALME-3M melanoma
SF-295 CNS = tested on: SF-295 CNS
MDA-MB-231 breast = tested on: MDA-MB-231 breast
A549 NSCLC = tested on: A549 NSCLC
NCI/ADR-RES ovarian = tested on: NCI/ADR-RES ovarian
MDA-MB-435 = tested on: MDA-MB-435
UACC-257 melanoma = tested on: UACC-257 melanoma
SK-MEL-28 melanoma = tested on: SK-MEL-28 melanoma
HCT-15 colon = tested on: HCT-15 colon
HCT-116 colon = tested on: HCT-116 colon
RPMI-8226 leukemia = tested on: RPMI-8226 leukemia
U251 CNS = tested on: U251 CNS
HT29 colon = tested on: HT29 colon
SR leukemia = tested on: SR leukemia
NCI-H522 lung = tested on: NCI-H522 lung
ACHN renal = tested on: ACHN renal
DU-145 prostate = tested on: DU-145 prostate
A498 renal = tested on: A498 renal
LOX IMVI melanoma = tested on: LOX IMVI melanoma
SN12C renal = tested on: SN12C renal
BT-549 breast = tested on: BT-549 breast
HOP-62 NSCLC = tested on: HOP-62 NSCLC
OVCAR-5 ovarian = tested on: OVCAR-5 ovarian
M14 melanoma = tested on: M14 melanoma
786-0 renal = tested on: 786-0 renal
SNB-19 CNS = tested on: SNB-19 CNS
IGROV1 ovarian = tested on: IGROV1 ovarian
CAKI-1 renal = tested on: CAKI-1 renal
CCRF-CEM leukemia = tested on: CCRF-CEM leukemia
MOLT-4 leukemia = tested on: MOLT-4 leukemia
KM12 colon = tested on: KM12 colon
NCI-H226 lung = tested on: NCI-H226 lung
COLO 205 colon = tested on: COLO 205 colon
TK-10 renal = tested on: TK-10 renal
HOP-92 NSCLC = tested on: HOP-92 NSCLC
SK-MEL-2 melanoma = tested on: SK-MEL-2 melanoma
UACC-62 melanoma = tested on: UACC-62 melanoma
SF-268 CNS = tested on: SF-268 CNS
OVCAR-4 ovarian = tested on: OVCAR-4 ovarian
OVCAR-3 ovarian = tested on: OVCAR-3 ovarian
OVCAR-8 ovarian = tested on: OVCAR-8 ovarian
SK-MEL-5 melanoma = tested on: SK-MEL-5 melanoma
NCI-H23 lung = tested on: NCI-H23 lung
SNB-75 CNS = tested on: SNB-75 CNS
HCC-2998 colon = tested on: HCC-2998 colon
EKVX NSCLC = tested on: EKVX NSCLC
RXF 393 renal = tested on: RXF 393 renal
SK-OV-3 ovarian = tested on: SK-OV-3 ovarian
MCF7 breast = tested on: MCF7 breast
HS 578T breast = tested on: HS 578T breast
PC-3 prostate = tested on: PC-3 prostate
T-47D breast = tested on: T-47D breast
UO-31 renal = tested on: UO-31 renal
HL-60(TB) leukemia = tested on: HL-60(TB) leukemia
SW-620 colon = tested on: SW-620 colon

For `Cc1ccccc1N1C(N)=C(C#N)C(C#N)(C#N)C1c1ccccc1` (stereo unspecified), the TGI (SF-539 CNS) was 37.9 µM, the TGI (MALME-3M melanoma) was 32.6 µM and the TGI (SF-295 CNS) was 68.9 µM. For the same molecule, the TGI (MDA-MB-231 breast) was 30.8 µM, the TGI (A549 NSCLC) was 62.7 µM and the TGI (NCI/ADR-RES ovarian) was 42.2 µM. For the same molecule, the TGI (MDA-MB-435) was 35.4 µM, the TGI (UACC-257 melanoma) was 32 µM and the TGI (SK-MEL-28 melanoma) was 36.5 µM. The TGI (HCT-15 colon) was 35.9 µM, the TGI (HCT-116 colon) was 33.6 µM and the TGI (RPMI-8226 leukemia) was 45.2 µM. For the same molecule, the TGI (U251 CNS) was 31.9 µM, the TGI (HT29 colon) was 34.2 µM and the TGI (SR leukemia) was 60.4 µM. It also gave a TGI (NCI-H522 lung) of 32.1 µM, a TGI (ACHN renal) of 35.1 µM and a TGI (DU-145 prostate) of 30.8 µM. For the same molecule, the TGI (A498 renal) was 33.7 µM, the TGI (LOX IMVI melanoma) was 32.7 µM and the TGI (SN12C renal) was 59 µM. The TGI (BT-549 breast) was 28.8 µM, the TGI (HOP-62 NSCLC) was 42.5 µM and the TGI (OVCAR-5 ovarian) was 41.5 µM. It also gave a TGI (M14 melanoma) of 45 µM, a TGI (786-0 renal) of 32.3 µM and a TGI (SNB-19 CNS) of 41.2 µM. For the same molecule, the TGI (IGROV1 ovarian) was 33.9 µM, the TGI (CAKI-1 renal) was > 100 µM and the TGI (CCRF-CEM leukemia) was 36.7 µM. For the same molecule, the TGI (MOLT-4 leukemia) was 39.3 µM, the TGI (KM12 colon) was 32.6 µM and the TGI (NCI-H226 lung) was 38.8 µM. The TGI (COLO 205 colon) was 33.4 µM, the TGI (TK-10 renal) was 28.4 µM and the TGI (HOP-92 NSCLC) was 35.9 µM. For the same molecule, the TGI (SK-MEL-2 melanoma) was 55.3 µM, the TGI (UACC-62 melanoma) was 37.7 µM and the TGI (SF-268 CNS) was 45.7 µM. For the same molecule, the TGI (OVCAR-4 ovarian) was 40.9 µM, the TGI (OVCAR-3 ovarian) was 35.6 µM and the TGI (OVCAR-8 ovarian) was 38.4 µM. It also gave a TGI (SK-MEL-5 melanoma) of 30.1 µM, a TGI (NCI-H23 lung) of 38.6 µM and a TGI (SNB-75 CNS) of 46 µM. For the same molecule, the TGI (HCC-2998 colon) was 32.4 µM, the TGI (EKVX NSCLC) was 42.8 µM and the TGI (RXF 393 renal) was 33.9 µM. It also gave a TGI (SK-OV-3 ovarian) of 86.6 µM, a TGI (MCF7 breast) of 42.6 µM and a TGI (HS 578T breast) of 58 µM. It also gave a TGI (PC-3 prostate) of 51 µM, a TGI (T-47D breast) of 31 µM and a TGI (UO-31 renal) of 31.2 µM. It also gave a TGI (HL-60(TB) leukemia) of 44.2 µM and a TGI (SW-620 colon) of 31.7 µM.
